Results as given in US12612431B2, “Cyclic compounds for treating cancer” (University of South Florida, priority 2021, dated 2026).

Experiments:
[1] = test system: AKT phosphorylation (P-AKT); assay: Western blot of downstream AKT phosphorylation in A549 cells; type: cell-based; details: starved A549 cells, 4 h pretreatment, EGF 100 ng/mL
Description: (§1) A549 cells were chosen due to their elevated expression of EGFR. […] The ability of M-2-5 to inhibit EGF-stimulated tyrosine phosphorylation of EGFR, as well as downstream AKT and ERK pathways in a dose-dependent manner was then investigated.
(§2) A549 cells were seeded into a 6-well plate at a concentration of 1×10^5 cells/well. After 12 h attachment at 37° C. and 5% CO2, the cells were starved overnight in serum-reduced DMEM followed by treatment with different concentration of M-2-5 for 4 h. […] Subsequently, the cells were incubated on ice for 10 min and centrifuged at 14,000×g at 4° C. for 10 min. An equal amount of protein was run on 4˜12% Bis-Tris gels, transferred to polyvinylidene difluoride membranes (Millipore) and western blotted with anti-phosphorylated EGFR, anti-phosphorylated AKT, anti-phosphorylated ERK and GAPDH. The experiments were conducted in triplicates and repeated for three times.

P-AKT = assay: Western blot of P-AKT in A549 tumor lysates; type: in vivo, mice; details: M-2-5 50 mg/kg
Description: (§3) After another 6 days post injection, mice were sacrificed, and tumors were resected. […] To confirm the expression level of P-EGFR and downstream signaling, the total proteins were extracted from tumor tissues in each group and subjected to immunoblotting of P-EGFR, P-ARK and P-ERK. […] In addition, the phosphorylation level of EGFR in the A549 tumor sections was analyzed by immunohistochemical staining.
(§4) The supernatant was transferred to a new tube and samples were centrifuged at 14,000 rpm for 15 min at 4° C. to remove any remaining insoluble material. The supernatant containing soluble proteins was transferred to a new tube and an aliquot was taken for the quantification and the further western blot analysis.

A549 cells [2] = assay: Scratch-wound (cell wound healing) assay; type: cell-based; details: A549, 25 μM, 30 h
Description: (§5) M-2-5's inhibitory effect on cell migration of A549 cells, which plays an important role in tumor metastatic activity, was then investigated. First, a scratch-wound assay was established to investigate the cell migratory behaviors.
A549 cells in good condition were seeded into a 12-well plate at a concentration of 5×10^4 cells/well. After 24 h attachment at 37° C. and 5% CO2, they reached confluence as a monolayer. The monolayer was scratched gently and slowly with a new 200 μL pipette tip across the center of the well straightly. After scratching, the well was washed twice with medium to remove the detached cells. The well was then replenished with fresh medium containing different concentration of M-2-5. The photo was taken for the scratched monolayer and then captured again after 30 h for the same wound. The wound width was measured by ImageJ. The experiments were conducted in triplicates and repeated for three times.

[3] = test system: Human Embryonic Kidney HEK293 cells
PAMPA-BBB assay = details: pH 7.4
Description: (§7) Carbamazepine and Antipyrine were used as the positive and negative control compounds for the assay.
The parallel artificial membrane permeability assay—blood brain barrier (PAMPA-BBB) assay procedure was realized by using a method developed by pION. All liquid handling steps for the PAMPA assay are performed on a TECAN Fredom EVO150 robot and analyzed by the pION's PAMPA Evolution Software. The pION's PAMPA-BBB includes the brain sink buffer (BSB), the BBB-1 Lipid Solution and the Stirwell™ PAMPA Sandwich plate, preloaded with magnetic disks. 4 μL of lipid were transferred in the acceptor well, followed by addition of 200 μL of BSB (pH 7.4). […] The PAMPA sandwich plate was assembled and placed on the Gut-Box™ and stirred with 60 μm Aqueous Boundary Layer (ABL) settings for 1 hour. The distribution of the compounds in the donor and acceptor buffers (150 μL aliquot) was determined by UV spectra measurement from 200 to 500 nm using the Tecan infinite M-1000 pro microplate reader. […] Experiments were repeated three times.

[4] = Body weight of A549 tumor xenografted mice; type: in vivo; details: 10 and 50 mg/kg intraperitoneal, FIG. 10
Description: (§6) Based upon the observed strong inhibition of cell proliferation and migration, the ability to inhibit EGFR cell signaling pathways in vitro, as well as the remarkable stability against proteolytic degradation, the antitumor activity of M-2-5 in a A549 lung tumor xenograft mouse model was evaluated in vivo. […] After another 6 days post injection, mice were sacrificed, and tumors were resected. […] To confirm the expression level of P-EGFR and downstream signaling, the total proteins were extracted from tumor tissues in each group and subjected to immunoblotting of P-EGFR, P-ARK and P-ERK. […] In addition, the phosphorylation level of EGFR in the A549 tumor sections was analyzed by immunohistochemical staining. […] Together with its similar function to monoclonal antibody and its high resistance toward proteolytic degradation, it could be further investigated for promising clinical anti-cancer drug development.
A549 cells were harvested, resuspended in PBS, and injected subcutaneously into 4-6 weeks old Male BALB/c nude mice. When the tumors reach an average size of 100 mm^3, the mice were then randomized divided into four treatment groups: Control (PBS), C-225 (40 mg/kg), M-2-5 (10 mg/kg) and M-2-5 (50 mg/kg). […] The tumor volumes were determined by measuring length (l) and width (w) and calculating volume (V=lw^2/2).

[5] = test system: ERK phosphorylation (P-ERK); assay: Western blot of downstream ERK phosphorylation in A549 cells; type: cell-based; details: starved A549 cells, 4 h pretreatment, EGF 100 ng/mL
Description: as §1, §2

[6] = biological target: T1, EGFR phosphorylation (P-EGFR) (Homo sapiens, UniProt P00533); assay: Western blot of EGF-stimulated EGFR phosphorylation in A549 cells; type: cell-based
T1 construct: endogenous in cells; host or cells: A549
T1 sequence (P00533 25-1210): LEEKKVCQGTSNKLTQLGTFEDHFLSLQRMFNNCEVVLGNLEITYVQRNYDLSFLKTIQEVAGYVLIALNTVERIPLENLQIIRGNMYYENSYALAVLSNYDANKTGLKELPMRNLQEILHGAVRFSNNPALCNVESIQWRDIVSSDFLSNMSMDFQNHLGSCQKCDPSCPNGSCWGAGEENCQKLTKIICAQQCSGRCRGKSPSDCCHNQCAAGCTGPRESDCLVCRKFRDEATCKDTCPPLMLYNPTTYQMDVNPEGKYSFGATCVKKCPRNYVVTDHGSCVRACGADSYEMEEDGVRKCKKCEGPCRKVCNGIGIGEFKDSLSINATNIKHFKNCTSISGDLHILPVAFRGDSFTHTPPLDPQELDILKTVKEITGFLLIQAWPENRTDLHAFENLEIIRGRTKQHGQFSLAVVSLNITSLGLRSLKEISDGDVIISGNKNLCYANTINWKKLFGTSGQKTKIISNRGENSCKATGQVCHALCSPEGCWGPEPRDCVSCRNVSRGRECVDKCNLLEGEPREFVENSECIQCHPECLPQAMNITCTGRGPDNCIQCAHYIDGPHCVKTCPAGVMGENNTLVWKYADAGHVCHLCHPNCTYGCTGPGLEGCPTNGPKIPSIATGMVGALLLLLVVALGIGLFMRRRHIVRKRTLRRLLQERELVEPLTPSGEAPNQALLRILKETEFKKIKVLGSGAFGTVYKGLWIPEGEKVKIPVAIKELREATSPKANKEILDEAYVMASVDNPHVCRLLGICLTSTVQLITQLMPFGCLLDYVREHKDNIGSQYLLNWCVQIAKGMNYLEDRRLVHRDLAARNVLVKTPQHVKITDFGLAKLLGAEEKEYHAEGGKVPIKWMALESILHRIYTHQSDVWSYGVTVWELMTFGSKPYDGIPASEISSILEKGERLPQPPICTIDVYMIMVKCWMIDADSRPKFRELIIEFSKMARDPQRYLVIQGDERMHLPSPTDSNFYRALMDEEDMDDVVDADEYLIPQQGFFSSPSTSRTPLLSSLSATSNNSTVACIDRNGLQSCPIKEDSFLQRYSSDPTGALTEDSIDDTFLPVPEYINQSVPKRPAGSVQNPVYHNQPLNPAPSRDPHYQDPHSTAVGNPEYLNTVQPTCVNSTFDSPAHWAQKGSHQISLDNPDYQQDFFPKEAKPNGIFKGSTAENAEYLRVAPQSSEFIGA
Description: as §1, §2

PAMPA-GIT assay = details: pH 5.0, 6.2 and 7.4 (FIG. 8B)
Description: as §7
The PAMPA-GIT assay procedure was realized by using a method developed by pION. All liquid handling steps for the PAMPA assay are performed on a TECAN Fredom EVO150 robot and analyzed by the pION's PAMPA Evolution Software. The pION's GIT PAMPA includes the acceptor sink buffer (ASB), the GIT-0 Lipid Solution and the Stirwell™ PAMPA Sandwich plate, preloaded with magnetic disks. 4 μL of lipid were transferred in the acceptor well, followed by addition of 200 μL of ASB (pH 7.4). […] The PAMPA sandwich plate was assembled and placed on the Gut-Box™ and stirred with 40 μm ABL settings for 30 min. The distribution of the compounds in the donor and acceptor buffers (150 μL aliquot) was determined by UV spectra measurement from 200 to 498 nm using the Tecan infinite M-1000 pro microplate reader. Then the Permeability (Papp, 10 ^6 cm/s) of each compound was calculated by the pion PAMPA evolution software. The assays were repeated three times.

pronase = assay: Enzymatic stability assay toward pronase; type: in vitro ADME; details: 0.1 mg/mL pronase, 100 mM ammonium bicarbonate buffer, 37° C., 20 h
Description: As M-2-5 is a promising ligand to block EGFR signaling in vitro, its enzymatic stability toward pronase (the enzyme theoretically digesting peptides into single amino acids), which is critical for their potential biological activity in vivo was evaluated.
Cyclic γ-AApeptides M-2-5 (0.1 mg/mL) were incubated with 0.1 mg/mL protease in 100 mM ammonium bicarbonate buffer (pH 7.8) at 37° C. for 20 h. Then, the reaction mixtures were concentrated in a speed vacuum to remove water and ammonium bicarbonate. The resulting residues were re-dissolved in H2O/MeCN and analyzed on a Waters analytical HPLC system.

P-EGFR = biological target: T2, P-EGFR (Homo sapiens, UniProt P00533); assay: Western blot of P-EGFR in A549 tumor lysates; type: in vivo, mice; details: M-2-5 50 mg/kg
T2 construct: from tissue; host or cells: A549 xenograft tumours from nude mice
T2 sequence (P00533 25-1210): as above
Description: as §3, §4

A549 cells [7] = assay: EGF-driven cell proliferation assay (CCK-8); type: cell-based; details: A549, EGF 100 ng/mL, 48 h
Description: A549 cells were cultured in high-glucose DMEM (Gibco) medium containing 10% fetal bovine serum and 1% penicillin/streptomycin in an atmosphere of 5% CO2 at 37° C. A549 cells in good condition were seeded into a 96-well plate at a concentration of 1×10^3 cells/well in 100 of complete growth medium. After 24 hours of attachment at 37° C. and 5% CO2, medium was replaced by fresh serum reduced DMEM and cell were serum-starved overnight. […] After 48 h, the CCK-8 reagents were added according to the manufacturer's recommendations.

[8] = test system: A549 lung tumor xenograft; assay: Antitumor study in A549 lung tumor xenograft mouse model; type: in vivo, mice; details: every two days for seven times
A549 cells [9] = assay: Transwell migration assay; type: cell-based; details: A549, EGF + M-2-5 25 μM, 12 h
Description: as §5
A549 cells in good condition were seeded into a 100 mm dish at a concentration of 5×10^5 cells. After overnight attachment at 37° C. and 5% CO2, culture medium was replaced with serum reduced DMEM medium, and the dish was returned to incubator for 24 h. Cells were the detached and resuspended in DMEM at a concentration of 1×10^6 cells/mL. Next, 100 μL of cell solution was plated on top of the filter membrane in a transwell insert and incubated for 10 minutes at 37° C. and 5% CO2 to allow the cells to settle down. Subsequently, 600 μL of the desired chemo-attractant was added very carefully into the bottom of the lower chamber in a 24-well plate. The culture was incubated for 12 h, and then the transwell insert was removed from the plate. A cotton-tipped applicator was used as many times as needed to carefully swab the inside of each insert. Cells were fixed by 70% ethanol, stained by 0.2% crystal violet and visualized by microscope. Transwell data was determined by the number of the migrated cells and the value from parental cells was arbitrarily set at 100%. The experiments were conducted in triplicates and repeated for three times.

P-ERK = assay: Western blot of P-ERK in A549 tumor lysates; type: in vivo, mice; details: M-2-5 50 mg/kg, compared to C225
Description: as §6
For the detection of phosphorylated EGFR, AKT and ERK in tumors in vivo, a portion of the tumor (80 mg) was immersed in 500 μL extraction buffer (50 mM Tris-HCl (pH 7.4), 150 mM NaCl, 1% NP-40, 0.25% Na-deoxycholate, Protease Inhibitor, SDS 0.1-2%), and tubes were vortexed briefly. […] The supernatant containing soluble proteins was transferred to a new tube and an aliquot was taken for the quantification and the further western blot analysis.

[10] = cited from earlier work
[11] = general statement on the positive control; cited from earlier work

COc1cc(CC(=O)N2CC(=O)N[C@@H](Cc3ccccc3)CN(CC(N)=O)C(=O)CCSCc3ccc(cc3)C(=O)N[C@@H](CCCCN)CN(C(=O)CCC3CCCCC3)CC(=O)N[C@@H](Cc3ccccc3)CN(C(=O)CCc3ccccc3)CC(=O)N[C@@H](Cc3ccccc3)C2)cc(OC)c1 [M-2-5]
IC50 [1]: 8.75 µM
P-AKT level in tumor tissue (P-AKT): dramatic decrease
percent of wound closed (A549 cells [2]): 15.2%
decrease of wound closed compared with untreated control (A549 cells [2]; control 55.3%): 40%
selectivity toward cancer cells over normal cells ([3]; A549 versus HEK293): ~8 fold
IC50 ([3]; read-out: IC50 for HEK293 cells, no EGF stimulation, CCK-8): 62.1 µM
Papp at 1 h, 50 μM (PAMPA-BBB assay): 266
body weight gain [4]: did not affect the body weight gain
IC50 [5]: 11.2 µM
IC50 [6]: 17.7 µM
effect on EGF-induced EGFR activation ([6]; starved A549 cells, 20 μM M-2-5 for 4 h, EGF 100 ng/mL (FIG. 5C, 5D)): blocked a vast majority of EGFR activation
inhibition of EGF stimulation of EGFR phosphorylation at 25 μM or more ([6]; starved A549 cells, 4 h pretreatment, 25 μM or more): almost complete blockage
Papp, PAMPA-GIT (in words) (PAMPA-GIT assay): favorable Papp without pH-dependence
degradation by pronase monitored by HPLC (pronase): no detectable degradation
P-EGFR level in tumor tissue (P-EGFR): dramatic decrease
IC50 (A549 cells [7]; CCK-8, read-out: IC50 of antiproliferative activity on EGF-stimulated cells): 8.23 µM
suppression of EGF-driven cell proliferation at ˜10 (A549 cells [7]; at ˜10 (unit not given), versus control without EGF): complete suppression of cell proliferation
tumor volume versus PBS group ([8]; 10 mg/kg intraperitoneal): no significant differences
tumor growth versus PBS group ([8]; 50 mg/kg intraperitoneal): significant suppression of tumor growth
number of migrating cells relative to untreated control (100%) (A549 cells [9]): 64.8%
inhibition of P-ERK in tumor tissue (P-ERK): slightly weaker efficiency

Cc1cc(=O)n(-c2ccccc2)n1C [Antipyrine]
Papp values (background) [10]: low Papp values

NC(=O)N1c2ccccc2C=Cc2ccccc21 [Carbamazepine]
absorption in the human gastrointestinal tract [11]: > 90%
